Where two headings read alike, the source gives them in different places.

For orientation: IC50 means the concentration that gives 50% inhibition.

The target in the assay is T1, human CGT (Homo sapiens, UniProt Q16880).
T1 sequence (Q16880 21-541): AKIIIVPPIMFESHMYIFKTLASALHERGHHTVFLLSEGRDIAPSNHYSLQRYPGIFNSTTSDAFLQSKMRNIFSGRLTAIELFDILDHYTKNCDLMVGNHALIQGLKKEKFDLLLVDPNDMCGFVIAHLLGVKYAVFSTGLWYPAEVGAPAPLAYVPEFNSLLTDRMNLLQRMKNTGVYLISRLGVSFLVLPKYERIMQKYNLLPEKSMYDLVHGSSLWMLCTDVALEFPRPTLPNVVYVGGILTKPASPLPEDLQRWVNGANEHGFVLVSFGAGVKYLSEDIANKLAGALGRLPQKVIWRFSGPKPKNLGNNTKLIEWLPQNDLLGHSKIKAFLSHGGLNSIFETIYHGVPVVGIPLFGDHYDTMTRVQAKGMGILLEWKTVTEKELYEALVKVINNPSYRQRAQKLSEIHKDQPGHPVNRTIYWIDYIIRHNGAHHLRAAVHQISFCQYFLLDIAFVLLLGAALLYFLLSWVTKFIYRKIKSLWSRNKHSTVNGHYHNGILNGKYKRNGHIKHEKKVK
In words: Assay 1: CGT Enzymatic Assay (RapidFire/MS/MS, 0.01% Tween 80). The format is biochemical. Conditions: Table 1, Compounds of Formula (I) and Formula (II), CGT enzymatic assay, read-out: IC50.

Setting [1] is: C6-NBD-dihydro-galactosylceramide readout.

For `COC[C@@]1(C)N(c2ccc(Cl)cc2)C(=O)N(c2ccc(Cl)cc2)[C@@]1(O)c1cccc(OC(F)(F)F)c1` [Compound 296-1, (4R,5R)-1,3-bis(4-chlorophenyl)-4-hydroxy-5-(methoxymethyl)-5-methyl-4-(3-(trifluoromethoxy)phenyl)imidazolidin-2-one], the half-inhibitory concentration (IC50) under setting [1] was in the range of 1 to 10 µM.

Consider `COC[C@]1(C)N(c2ccc(Cl)cc2)C(=O)N(c2ccc(Cl)cc2)[C@]1(O)c1cccc(OC(F)(F)F)c1` [Compound 296-2, (4S,5S)-1,3-bis(4-chlorophenyl)-4-hydroxy-5-(methoxymethyl)-5-methyl-4-(3-(trifluoromethoxy)phenyl)imidazolidin-2-one], for which the IC50 under setting [1] is < 1 µM. On to `COC[C@]1(C)N(c2ccc(Cl)cc2)C(=O)N(c2ccc(Cl)cc2)[C@@]1(O)c1cccc(OC(F)(F)F)c1` [Compound 296-3, (4R,5S)-1,3-bis(4-chlorophenyl)-4-hydroxy-5-(methoxymethyl)-5-methyl-4-(3-(trifluoromethoxy)phenyl)imidazolidin-2-one], for which the half-inhibitory concentration (IC50) under setting [1] was in the range of 1 to 10 µM. With `COC[C@@]1(C)N(c2ccc(Cl)cc2)C(=O)N(c2ccc(Cl)cc2)[C@]1(O)c1cccc(OC(F)(F)F)c1` [Compound 296-4, (4S,5R)-1,3-bis(4-chlorophenyl)-4-hydroxy-5-(methoxymethyl)-5-methyl-4-(3-(trifluoromethoxy)phenyl)imidazolidin-2-one], under setting [1], the half-maximal inhibitory concentration (IC50) is < 1 µM. In the case of `COCC1(C)N(c2ccc(Cl)cc2)C(=O)N(c2ccc(Cl)cc2)C1(O)c1cccc(C#N)c1` (stereo not drawn) [Compound 297, 3-(1,3-bis(4-chlorophenyl)-4-hydroxy-5-(methoxymethyl)-5-methyl-2-oxoimidazolidin-4-yl)benzonitrile], the 50% inhibitory concentration (IC50) under setting [1] is < 1 µM. Same read-out and setting: in the case of `Cc1ccc(N2C(=O)N(c3ccc(Cl)cc3)C3(COC3)C2(O)c2cccc(C#N)c2)cc1` (stereo not drawn) [Compound 298, 3-(5-(4-chlorophenyl)-8-hydroxy-6-oxo-7-(p-tolyl)-2-oxa-5,7-diazaspiro[3.4]octan-8-yl)benzonitrile] it was < 1 µM; in that of `Cc1ccc(N2C(=O)N(c3ccc(Cl)cc3)C3(COC3)C2(O)c2cccc(OC(F)(F)F)c2)cc1` (stereo not drawn) [Compound 299, 5-(4-chlorophenyl)-8-hydroxy-7-(p-tolyl)-8-(3-(trifluoromethoxy)phenyl)-2-oxa-5,7-diazaspiro[3.4]octan-6-one], < 1 µM; in that of `N#Cc1cccc(C2(O)N(c3ccc(Cl)cc3)C(=O)N(c3ccc(Cl)cc3)C23CNC3)c1` (stereo not drawn) [Compound 300, 3-(5,7-bis(4-chlorophenyl)-8-hydroxy-6-oxo-2,5,7-triazaspiro[3.4]octan-8-yl)benzonitrile 2,2,2-trifluoroacetate], 1 to 10 µM. Regarding `CN1CC2(C1)N(c1ccc(Cl)cc1)C(=O)N(c1ccc(Cl)cc1)C2(O)c1cccc(C#N)c1` (stereo not drawn) [Compound 301, 3-(5,7-bis(4-chlorophenyl)-8-hydroxy-2-methyl-6-oxo-2,5,7-triazaspiro[3.4]octan-8-yl)benzonitrile 2,2,2-trifluoroacetate], under setting [1], the half-inhibitory concentration (IC50) was < 1 µM. In the case of `O=C1N(c2ccc(C(F)(F)F)cc2)C2(COC2)C(O)(c2cccc(OC(F)(F)F)c2)N1c1ccc(C(F)(F)F)cc1` (stereo not drawn) [Compound 302, 8-hydroxy-8-(3-(trifluoromethoxy)phenyl)-5,7-bis(4-(trifluoromethyl)phenyl)-2-oxa-5,7-diazaspiro[3.4]octan-6-one], the IC50 under setting [1] was < 1 µM. Still for that read-out and setting: the same measure for `N#Cc1cccc(C2(O)N(c3ccc(C(F)(F)F)cc3)C(=O)N(c3ccc(C(F)(F)F)cc3)C23COC3)c1` (stereo not drawn) [Compound 303, 3-(8-hydroxy-6-oxo-5,7-bis(4-(trifluoromethyl)phenyl)-2-oxa-5,7-diazaspiro[3.4]octan-8-yl)benzonitrile]: < 1 µM; for `O=C1N(c2ccc(Cl)cc2)C2(CC(F)(F)C2)C(O)(c2cccc(OC(F)(F)F)c2)N1c1ccc(Cl)cc1` (stereo not drawn) [Compound 304, 5,7-bis(4-chlorophenyl)-2,2-difluoro-8-hydroxy-8-(3-(trifluoromethoxy)phenyl)-5,7-diazaspiro[3.4]octan-6-one]: < 1 µM. Still for that read-out and setting: in the case of `N#Cc1cccc(C2(O)N(c3ccc(Cl)cc3)C(=O)N(c3ccc(Cl)cc3)C23CC(F)(F)C3)c1` (stereo not drawn) [Compound 305, 3-(5,7-bis(4-chlorophenyl)-2,2-difluoro-8-hydroxy-6-oxo-5,7-diazaspiro[3.4]octan-8-yl)benzonitrile] it was < 1 µM. On to `N#Cc1cc(C#N)cc(C2(O)N(c3ccc(Cl)cc3)C(=O)N(c3ccc(Cl)cc3)C23COC3)c1` (stereo not drawn) [Compound 306, 5-(5,7-bis(4-chlorophenyl)-8-hydroxy-6-oxo-2-oxa-5,7-diazaspiro[3.4]octan-8-yl)isophthalonitrile], for which the IC50 under setting [1] was < 1 µM. As for `O=C1N(c2ccc(Br)cc2)CC(O)(c2ccccc2)N1c1ccc(Br)cc1` (stereo not drawn) [Example 1], the half-inhibitory concentration (IC50) lay in the range of 1 to 10 µM. Still for that read-out and setting: the same measure for `CC1(O)CN(c2ccc(Br)cc2)C(=O)N1c1ccc(Br)cc1` (stereo not drawn) [Example 2, 1,3-bis(4-bromophenyl)-4-hydroxy-4-methylimidazolidin-2-one]: > 50 µM. With `Cc1c(-c2cccc(C#N)c2)n(-c2ccc(Cl)cc2)c(=O)n1-c1ccc(Cl)cc1` [Example 3], the IC50 was < 1 µM. For `CCC1(O)CN(c2ccc(Br)cc2)C(=O)N1c1ccc(Br)cc1` (stereo not drawn) [Example 4, 1,3-bis(4-bromophenyl)-4-ethyl-4-hydroxyimidazolidin-2-one], the IC50 was in the range of 10 to 50 µM.

As for `O=C1N(c2ccc(Br)cc2)CC(O)(c2ccc(Cl)s2)N1c1ccc(Br)cc1` (stereo not drawn) [Example 5, 1,3-bis(4-bromophenyl)-4-(5-chlorothiophen-2-yl)-4-hydroxyimidazolidin-2-one], the IC50 was 10 to 50 µM. Regarding `CCCCC1(O)CN(c2ccc(Br)cc2)C(=O)N1c1ccc(Br)cc1` (stereo not drawn) [Example 6, 1,3-bis(4-bromophenyl)-4-butyl-4-hydroxyimidazolidin-2-one], the IC50 was > 50 µM.

On to `O=C1N(c2ccc(Br)cc2)CC(O)(c2cccs2)N1c1ccc(Br)cc1` (stereo not drawn) [Example 7, 1,3-bis(4-bromophenyl)-4-hydroxy-4-(thiophen-2-yl)imidazolidin-2-one], for which the IC50 fell in the range of 1 to 10 µM. For `O=C1N(c2ccc(Br)cc2)CC(O)(c2cc3ccccc3s2)N1c1ccc(Br)cc1` (stereo not drawn) [Example 8, 4-(benzo[b]thiophen-2-yl)-1,3-bis(4-bromophenyl)-4-hydroxyimidazolidin-2-one], the IC50 lay in the range of 50 to 100 µM. Turning to `O=C1N(c2ccc(Br)cc2)CC(O)(c2ccccn2)N1c1ccc(Br)cc1` (stereo not drawn) [Example 9, 1,3-bis(4-bromophenyl)-4-hydroxy-4-(pyridin-2-yl)imidazolidin-2-one], the IC50 is > 50 µM. Still for that read-out and setting: in the case of `O=C1N(c2ccc(Br)cc2)CC(O)(c2nc3ccccc3s2)N1c1ccc(Br)cc1` (stereo not drawn) [Example 10, 4-(benzo[d]thiazol-2-yl)-1,3-bis(4-bromophenyl)-4-hydroxyimidazolidin-2-one] it was > 50 µM; in that of `O=C1N(c2ccc(F)cc2)CC(O)(c2ccccc2)N1c1ccc(F)cc1` (stereo not drawn) [Example 11, 1,3-bis(4-fluorophenyl)-4-hydroxy-4-phenylimidazolidin-2-one], > 50 µM; in that of `O=C1N(c2ccc(Cl)cc2)CC(O)(c2ccccc2)N1c1ccc(Cl)cc1` (stereo not drawn) [Example 12, 1,3-bis(4-chlorophenyl)-4-hydroxy-4-phenylimidazolidin-2-one], 1 to 10 µM. `C[C@@H]1N(c2ccc(Br)cc2)C(=O)N(c2ccc(Br)cc2)C1(O)c1ccccc1` (stereo partly drawn) [Example 13-1]: the IC50 is < 1 µM. Consider `CC1N(c2ccc(Br)cc2)C(=O)N(c2ccc(Br)cc2)C1(O)c1ccccc1` (stereo not drawn) [Example 13], for which the IC50 was < 1 µM. On to `Cc1ccccc1C1(O)CN(c2ccc(Br)cc2)C(=O)N1c1ccc(Br)cc1` (stereo not drawn) [Example 14, 1,3-bis(4-bromophenyl)-4-hydroxy-4-(o-tolyl)imidazolidin-2-one], for which the IC50 is > 50 µM. For the molecule `O=C1N(c2ccc(C(F)(F)F)cc2)CC(O)(c2ccccc2)N1c1ccc(C(F)(F)F)cc1` (stereo not drawn) [Example 15, 4-hydroxy-4-phenyl-1,3-bis(4-(trifluoromethyl)phenyl)imidazolidin-2-one], the IC50 was > 50 µM. As for `Cc1cccc(C2(O)CN(c3ccc(Br)cc3)C(=O)N2c2ccc(Br)cc2)c1` (stereo not drawn) [Example 16, 1,3-bis(4-bromophenyl)-4-hydroxy-4-(m-tolyl)imidazolidin-2-one], the IC50 lay within 1 to 10 µM. Regarding `Cc1ccc(N2CC(O)(c3ccccc3)N(c3ccc(C)cc3)C2=O)cc1` (stereo not drawn) [Example 17, 4-hydroxy-4-phenyl-1,3-di-p-tolylimidazolidin-2-one], the 50% inhibitory concentration (IC50) fell in the range of 1 to 10 µM. On to `O=c1n(-c2ccc(Br)cc2)c2c(n1-c1ccc(Br)cc1)CCCC2` [Example 18], for which the IC50 was 10 to 50 µM. With `O=C1N(c2ccc(Br)cc2)CC(O)(c2ccc(Cl)cc2)N1c1ccc(Br)cc1` (stereo not drawn) [Example 19, 1,3-bis(4-bromophenyl)-4-(4-chlorophenyl)-4-hydroxyimidazolidin-2-one], the half-inhibitory concentration (IC50) was in the range of 10 to 50 µM. With `O=C1N(c2ccccc2)CC(O)(c2ccccc2)N1c1ccc(Br)cc1` (stereo not drawn) [Example 20, 3-(4-bromophenyl)-4-hydroxy-1,4-diphenylimidazolidin-2-one], the IC50 is > 50 µM. With `O=C1N(c2ccccc2)CC(O)(c2ccccc2)N1c1ccccc1` (stereo not drawn) [Example 21, 4-hydroxy-1,3,4-triphenylimidazolidin-2-one], the half-inhibitory concentration (IC50) is > 50 µM.

The record behind these values is US20190134005A1 (BioMarin Pharmaceutical Inc., priority 2016, published 2019).
